# In patent US20210177803A1, “NEW PHARMACEUTICAL USE FOR THE TREATMENT OF HEART FAILURE” (Novartis AG, priority 2018, published 2021):
# Read-outs that look alike come from different tables or passages of the source.
# Legend:
# [1] = tested on: patients with HFrEF following hemodynamic stabilization after an episode of ADHF; conditions: for Patients with ≥1 AE: full analysis set;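 for all read-outs here: adverse events recorded in patients during the 10-week treatment phase following randomization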
# NT-proBNP = tested on: NT-proBNP
# Protocol: The study rational and design is described in by Velazquez E J, et al. .in Am.
# The starting dose and all subsequent doses were selected to optimize the highest tolerated dose based on a systolic blood pressure (SBP) algorithm.
# Inclusion Criteria: • Patients ≥18 y of age with the capacity to provide written informed consent. • Currently hospitalized for a primary diagnosis of HF, including symptoms and signs of fluid overload. • Eligible patients will be randomized no earlier than 24 hours and up to ten days after presentation while still hospitalized as long as meet the following definition of stable status: • SBP≥100 mm Hg for the preceding 6 hours prior to randomization; no symptomatic hypotension • No increase (intensification) in i.v. diuretic dose within last 6 hours prior to randomization • No i.v. inotropic drugs for 24 hours prior to randomization • No i.v. vasodilators including nitrates within last 6 hours prior to randomization • Left ventricular EF 40% within the past 6 m (including current hospitalization) using echocardiography, multi gated acquisition scan (MUGA), CT scanning, MRI or ventricular angiography, provided no subsequent study documented an EF of >40% • Elevated NT-proBNP≥1600 pg/mL OR BNP≥400 pg/mL during current hospitalization.
# [2] = post-discharge, N = 496, 10-week treatment epoch
# [3] = post-discharge, N = 496, 10-week treatment period
# [4] = pre-discharge, N = 497, 10-week treatment epoch
# [5] = pre-discharge, N = 497, 10-week treatment period
# [6] = previous diagnosis of HFrEF (N = 705)
compound,measurement,setting,value
"CCCCC(=O)N(Cc1ccc(-c2ccccc2-c2nn[n-]n2)cc1)[C@H](C(=O)[O-])C(C)C.CCOC(=O)[C@H](C)C[C@@H](Cc1ccc(-c2ccccc2)cc1)NC(=O)CCC(=O)[O-].[Na+].[Na+].[Na+] [LCZ696, trisodium [3((1S,3R)-1-biphenyl-4-ylmethyl-3-ethoxycarbonyl-1-butylcarbamoyl) propionate-(S)-3′-methyl-2′-(pentanoyl{2″-(tetrazol-5-ylate)biphenyl-4′-ylmethyl}amino)butyrate]hemipentahydrate]",Serious adverse event: Pulmonary edema,"[1]; post-discharge, N = 496",2 (0.4) n (%)
same,Serious adverse event: Renal failure,"[1]; post-discharge, N = 496",1 (0.2) n (%)
same,Serious adverse event: Respiratory tract infection,"[1]; post-discharge, N = 496",3 (0.6) n (%)
same,Serious adverse event: Ventricular tachycardia,"[1]; post-discharge, N = 496",0 (0.0) n (%)
same,Temporary treatment interruption due to AEs,"[1]; post-discharge, N = 496",55 (11.1) n (%)
same,Temporary treatment interruption due to SAEs,"[1]; post-discharge, N = 496",18 (3.6) n (%)
same,Temporary treatment interruption due to non-SAEs,"[1]; post-discharge, N = 496",42 (8.5) n (%)
same,Adverse event: Cardiac failure,[1]; [2],42 (8.5) n (%)
same,Adverse event: Diarrhea,[1]; [2],23 (4.6) n (%)
same,Adverse event: Dizziness,[1]; [2],21 (4.2) n (%)
same,Adverse event: Hyperkalemia,[1]; [2],56 (11.3) n (%)
same,Adverse event: Hypotension,[1]; [2],45 (9.1) n (%)
same,Adverse event: Peripheral edema,[1]; [2],24 (4.8) n (%)
same,Adverse event: Renal impairment,[1]; [2],15 (3.0) n (%)
same,Adverse event: Urinary tract infection,[1]; [2],15 (3.0) n (%)
same,Deaths,[1]; [3],10 (2.0) n (%)
same,Patients with ≥ SAE / at least one SAE,[1]; [3],88 (17.7) n (%)
same,Patients with ≥1 AE,[1]; [3],323 (65.1) n (%)
same,Permanent treatment discontinuation due to AEs,"[1]; post-discharge, N = 496, full analysis set",20 (4.0) n (%)
same,"RRR, permanent discontinuation due to AEs",[1]; pre- vs post-discharge,1.287
same,"Mortality, patients who died",[1]; pre-discharge arm,2.6%
same,"AE cardiac failure, patients",[1]; pre-discharge group,6.8%
same,"AE dizziness, patients",[1]; pre-discharge group,5.6%
same,"AE hyperkalemia, patients",[1]; pre-discharge group,11.1%
same,"AE hypotension, patients",[1]; pre-discharge group,12.3%
same,Patients with SAEs,[1]; pre-discharge group,18.9%
same,"SAE acute kidney injury, patients",[1]; pre-discharge group,1.2%
same,"SAE cardiac failure, patients",[1]; pre-discharge group,7.0%
same,Permanent treatment discontinuation due to SAEs,"[1]; pre-discharge, N = 497",15 (3.0) n (%)
same,Permanent treatment discontinuation due to non-SAEs,"[1]; pre-discharge, N = 497",8 (1.6) n (%)
same,Serious adverse event: Acute kidney injury,"[1]; pre-discharge, N = 497",6(1.2) n (%)
same,Serious adverse event: Atrial fibrillation,"[1]; pre-discharge, N = 497",3 (0.6) n (%)
same,Serious adverse event: Cardiac failure(acute/chronic),"[1]; pre-discharge, N = 497",35 (7.0) n (%)
same,Serious adverse event: Chronic obstructive pulmonary disease,"[1]; pre-discharge, N = 497",0 (0.0) n (%)
same,Serious adverse event: Hyperkalemia,"[1]; pre-discharge, N = 497",3 (0.6) n (%)
same,Serious adverse event: Hypotension,"[1]; pre-discharge, N = 497",4 (0.8) n (%)
same,Serious adverse event: Non-cardiac chest pain,"[1]; pre-discharge, N = 497",0 (0.0) n (%)
same,Serious adverse event: Pneumonia,"[1]; pre-discharge, N = 497",4 (0.8) n (%)
same,Serious adverse event: Pulmonary edema,"[1]; pre-discharge, N = 497",3 (0.6) n (%)
same,Serious adverse event: Renal failure,"[1]; pre-discharge, N = 497",3 (0.6) n (%)
same,Serious adverse event: Respiratory tract infection,"[1]; pre-discharge, N = 497",0 (0.0) n (%)
same,Serious adverse event: Ventricular tachycardia,"[1]; pre-discharge, N = 497",3 (0.6) n (%)
same,Temporary treatment interruption due to AEs,"[1]; pre-discharge, N = 497",70 (14.1) n (%)
same,Temporary treatment interruption due to SAEs,"[1]; pre-discharge, N = 497",21 (4.2) n (%)
same,Temporary treatment interruption due to non-SAEs,"[1]; pre-discharge, N = 497",54 (10.9) n (%)
same,Adverse event: Cardiac failure,[1]; [4],34 (6.8) n (%)
same,Adverse event: Diarrhea,[1]; [4],12 (2.4) n (%)
same,Adverse event: Dizziness,[1]; [4],28 (5.6) n (%)
same,Adverse event: Hyperkalemia,[1]; [4],55 (11.1) n (%)
same,Adverse event: Hypotension,[1]; [4],61(12.3) n (%)
same,Adverse event: Peripheral edema,[1]; [4],17 (3.4) n (%)
same,Adverse event: Renal impairment,[1]; [4],25 (5.0) n (%)
same,Adverse event: Urinary tract infection,[1]; [4],20 (4.0) n (%)
same,Deaths,[1]; [5],13 (2.6) n (%)
same,Patients with ≥ SAE / at least one SAE,[1]; [5],94 (18.9) n (%)
same,Patients with ≥1 AE,[1]; [5],338 (68.0) n (%)
same,Permanent treatment discontinuation due to AEs,"[1]; pre-discharge, N = 497, full analysis set",22 (4.4) n (%)
same,AE of interest: Blood creatinine increased,[1]; [6],26 (3.7) n (%)
same,AE of interest: Cardiac failure,[1]; [6],58 (8.2) n (%)
same,AE of interest: Hyperkalemia,[1]; [6],85 (12.1) n (%)
same,AE of interest: Hypotension,[1]; [6],108 (10.9) n (%)
same,AE of interest: Renal failure,[1]; [6],16 (2.3) n (%)
same,AE of interest: Renal impairment,[1]; [6],32 (4.5) n (%)
same,At least one AE,[1]; [6],478 (67.8) n (%)
same,At least one serious AE,[1]; [6],130 (18.4) n (%)
same,Death,[1]; [6],5 (0.7) n (%)
same,Treatment interruption due to AE,[1]; [6],87 (12.3) n (%)
same,Ratio of time-averaged change in NT-proBNP from baseline to the geometric mean of weeks 4 and 8,NT-proBNP; LCZ696 vs. Enalapril,0.71
same,Ratio of change in NT-proBNP from baseline,"NT-proBNP; LCZ696 vs. enalapril, week 1",0.76
